Results: patent publication US4471131A, “Novel silyl esters of N-phosphonomethylglycine” (Monsanto Company, priority 1983, dated 1984)

Columns and labels:
Experiment in all cases: post-emergence herbicidal activity, greenhouse
Format in all cases: in vivo
Soybean = conditions: Table III; 2 WAT; 1.1 kg/h
Method in brief: (§1)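 Plants grown two to three weeks in greenhouse soil pans were atomizer-sprayed with test chemical in spray containing about 0.4% emulsifier, at the listed rates. Injury relative to unsprayed controls observed at approximately two and four weeks after treatment.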

Canada Thistle = conditions: Table II
Method in brief: as §1

Downy Brome = test system: Downy Brome
Method in brief: as §1

Hemp Sesbania = conditions: Table III; 2 WAT; 1.1 kg/h
Method in brief: as §1

Rice = conditions: Table III; 2 WAT; 1.1 kg/h
Method in brief: as §1

Yellow Nutsedge = conditions: Table II
Method in brief: (§2)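 Plants grown from seed or vegetative propagules in topsoil pans on a greenhouse sand bench, watered from below, were atomizer-sprayed at two to three weeks of age. The spray carried about 0.4% by weight emulsifier. Injury relative to unsprayed control pans was scored approximately two and four weeks after treatment.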

Barnyardgrass = test system: Barnyardgrass
Method in brief: as §1

Wild Buckwheat = conditions: Table III; 2 WAT; 1.1 kg/h
Method in brief: as §1

Panicum Spp = conditions: Table III; 2 WAT; 1.1 kg/h
Method in brief: as §1

Large Crabgrass = conditions: Table III; 2 WAT; 1.1 kg/h
Method in brief: as §1

Morningglory = test system: Morningglory
Method in brief: as §1

Velvetleaf = test system: Velvetleaf
Method in brief: as §1

Cocklebur = test system: Cocklebur
Method in brief: as §1

Pennsylvania Smartweed = conditions: Table II
Method in brief: as §1

Quackgrass = conditions: Table II
Method in brief: as §2

Common Lambsquarters = test system: Common Lambsquarters
Method in brief: as §1

Johnsongrass = conditions: Table II
Method in brief: as §1

Sugar Beet = conditions: Table III; 2 WAT; 1.1 kg/h
Method in brief: as §1

`CC(C)(C)[Si](OP(=O)(O)CNCC(=O)OCCCl)(c1ccccc1)c1ccccc1` [Ex. 8, Glycine, N--((([(1,1-Dimethylethyl)Diphenylsilyl]oxy)Hydroxyphosphinyl)Methyl)-,2-Chloroethyl Ester Hydrate] was tested, and the “Plant Response Index (L)” value (Soybean) was 0 (0-24% inhibition), the “Plant Response Index (A)” value (Canada Thistle; 2 WAT, 5.6 kg/h) was 2 (50-74% inhibition) and the “Plant Response Index (A)” value (Canada Thistle; 2 WAT, 11.2 kg/h) was 2 (50-74% inhibition). The “Plant Response Index (A)” value (Canada Thistle; 4 WAT, 5.6 kg/h) was 4 (100% inhibition), the “Plant Response Index (A)” value (Canada Thistle; 4 WAT, 11.2 kg/h) was 2 (50-74% inhibition) and the “Plant Response Index (J)” value (Downy Brome; Table II, 2 WAT, 5.6 kg/h) was 1 (25-49% inhibition). For the same compound, the “Plant Response Index (J)” value (Downy Brome; Table II, 2 WAT, 11.2 kg/h) was 2 (50-74% inhibition), the “Plant Response Index (J)” value (Downy Brome; Table II, 4 WAT, 5.6 kg/h) was 1 (25-49% inhibition) and the “Plant Response Index (J)” value (Downy Brome; Table II, 4 WAT, 11.2 kg/h) was 3 (75-99% inhibition). For the same compound, the “Plant Response Index (J)” value (Downy Brome; Table III, 2 WAT, 1.1 kg/h) was 0 (0-24% inhibition), the “Plant Response Index (R)” value (Hemp Sesbania) was 1 (25-49% inhibition) and the “Plant Response Index (O)” value (Rice) was 0 (0-24% inhibition). For the same compound, the “Plant Response Index (G)” value (Yellow Nutsedge; 2 WAT, 5.6 kg/h) was 2 (50-74% inhibition), the “Plant Response Index (G)” value (Yellow Nutsedge; 2 WAT, 11.2 kg/h) was 2 (50-74% inhibition) and the “Plant Response Index (G)” value (Yellow Nutsedge; 4 WAT, 5.6 kg/h) was 2 (50-74% inhibition). For the same compound, the “Plant Response Index (G)” value (Yellow Nutsedge; 4 WAT, 11.2 kg/h) was 3 (75-99% inhibition), the “Plant Response Index (K)” value (Barnyardgrass; Table II, 2 WAT, 5.6 kg/h) was 3 (75-99% inhibition) and the “Plant Response Index (K)” value (Barnyardgrass; Table II, 2 WAT, 11.2 kg/h) was 2 (50-74% inhibition). The “Plant Response Index (K)” value (Barnyardgrass; Table II, 4 WAT, 5.6 kg/h) was 4 (100% inhibition), the “Plant Response Index (K)” value (Barnyardgrass; Table II, 4 WAT, 11.2 kg/h) was 3 (75-99% inhibition) and the “Plant Response Index (K)” value (Barnyardgrass; Table III, 2 WAT, 1.1 kg/h) was 1 (25-49% inhibition). The “Plant Response Index (Q)” value (Wild Buckwheat) was 0 (0-24% inhibition), the “Plant Response Index (S)” value (Panicum Spp) was 1 (25-49% inhibition) and the “Plant Response Index (T)” value (Large Crabgrass) was 2 (50-74% inhibition). The “Plant Response Index (D)” value (Morningglory; Table II, 2 WAT, 5.6 kg/h) was 2 (50-74% inhibition), the “Plant Response Index (D)” value (Morningglory; Table II, 2 WAT, 11.2 kg/h) was 2 (50-74% inhibition) and the “Plant Response Index (D)” value (Morningglory; Table II, 4 WAT, 5.6 kg/h) was 2 (50-74% inhibition). For the same compound, the “Plant Response Index (D)” value (Morningglory; Table II, 4 WAT, 11.2 kg/h) was 2 (50-74% inhibition), the “Plant Response Index (D)” value (Morningglory; Table III, 2 WAT, 1.1 kg/h) was 0 (0-24% inhibition) and the “Plant Response Index (C)” value (Velvetleaf; Table II, 2 WAT, 5.6 kg/h) was 1 (25-49% inhibition). For the same compound, the “Plant Response Index (C)” value (Velvetleaf; Table II, 2 WAT, 11.2 kg/h) was 3 (75-99% inhibition), the “Plant Response Index (C)” value (Velvetleaf; Table II, 4 WAT, 5.6 kg/h) was 1 (25-49% inhibition) and the “Plant Response Index (C)” value (Velvetleaf; Table II, 4 WAT, 11.2 kg/h) was 3 (75-99% inhibition). The “Plant Response Index (C)” value (Velvetleaf; Table III, 2 WAT, 1.1 kg/h) was 0 (0-24% inhibition), the “Plant Response Index (B)” value (Cocklebur; Table II, 2 WAT, 5.6 kg/h) was 2 (50-74% inhibition) and the “Plant Response Index (B)” value (Cocklebur; Table II, 2 WAT, 11.2 kg/h) was 3 (75-99% inhibition). The “Plant Response Index (B)” value (Cocklebur; Table II, 4 WAT, 5.6 kg/h) was 3 (75-99% inhibition), the “Plant Response Index (B)” value (Cocklebur; Table II, 4 WAT, 11.2 kg/h) was 3 (75-99% inhibition) and the “Plant Response Index (B)” value (Cocklebur; Table III, 2 WAT, 1.1 kg/h) was 0 (0-24% inhibition). The “Plant Response Index (F)” value (Pennsylvania Smartweed; 2 WAT, 5.6 kg/h) was 3 (75-99% inhibition), the “Plant Response Index (F)” value (Pennsylvania Smartweed; 2 WAT, 11.2 kg/h) was 2 (50-74% inhibition) and the “Plant Response Index (F)” value (Pennsylvania Smartweed; 4 WAT, 5.6 kg/h) was 4 (100% inhibition). The “Plant Response Index (F)” value (Pennsylvania Smartweed; 4 WAT, 11.2 kg/h) was 4 (100% inhibition), the “Plant Response Index (H)” value (Quackgrass; 2 WAT, 5.6 kg/h) was 3 (75-99% inhibition) and the “Plant Response Index (H)” value (Quackgrass; 2 WAT, 11.2 kg/h) was 2 (50-74% inhibition). For the same compound, the “Plant Response Index (H)” value (Quackgrass; 4 WAT, 5.6 kg/h) was 4 (100% inhibition), the “Plant Response Index (H)” value (Quackgrass; 4 WAT, 11.2 kg/h) was 3 (75-99% inhibition) and the “Plant Response Index (E)” value (Common Lambsquarters; Table II, 2 WAT, 5.6 kg/h) was 2 (50-74% inhibition). The “Plant Response Index (E)” value (Common Lambsquarters; Table II, 2 WAT, 11.2 kg/h) was 1 (25-49% inhibition), the “Plant Response Index (E)” value (Common Lambsquarters; Table II, 4 WAT, 5.6 kg/h) was 2 (50-74% inhibition) and the “Plant Response Index (E)” value (Common Lambsquarters; Table II, 4 WAT, 11.2 kg/h) was 1 (25-49% inhibition). The “Plant Response Index (E)” value (Common Lambsquarters; Table III, 2 WAT, 1.1 kg/h) was 3 (75-99% inhibition), the “Plant Response Index (I)” value (Johnsongrass; 2 WAT, 5.6 kg/h) was 0 (0-24% inhibition) and the “Plant Response Index (I)” value (Johnsongrass; 2 WAT, 11.2 kg/h) was 1 (25-49% inhibition). For the same compound, the “Plant Response Index (I)” value (Johnsongrass; 4 WAT, 5.6 kg/h) was 2 (50-74% inhibition), the “Plant Response Index (I)” value (Johnsongrass; 4 WAT, 11.2 kg/h) was 2 (50-74% inhibition) and the “Plant Response Index (M)” value (Sugar Beet) was 0 (0-24% inhibition).
